{
  "source": "paper PMC10415144",
  "about": "“Structural insights into CodY activation and DNA recognition” (Nucleic Acids Research, 2023)",
  "key": {"EfCodY [1]": {"target": "T1, EfCodY (Enterococcus faecalis, UniProt Q834K5)", "T1 construct": "gene codY; full-length; expressed in E. coli BL21(DE3)pLysS; N-terminal His6-tag cut with TEV protease, Gly-Ala remnant before start Met; two dimers on 30-bp DNA", "T1 sequence (Q834K5 entry or part of it)": "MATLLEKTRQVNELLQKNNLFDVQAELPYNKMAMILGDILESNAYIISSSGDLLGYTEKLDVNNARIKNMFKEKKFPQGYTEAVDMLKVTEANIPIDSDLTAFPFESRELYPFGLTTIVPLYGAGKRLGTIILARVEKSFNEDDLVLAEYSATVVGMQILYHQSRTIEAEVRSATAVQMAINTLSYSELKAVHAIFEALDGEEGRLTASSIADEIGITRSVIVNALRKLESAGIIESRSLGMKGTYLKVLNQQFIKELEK", "assay": "bio-layer interferometry, reduction of Leu-activated binding to hutP operator DNA", "assay_type": "biochemical", "settings": "2 mM GTP with 10 mM Leu; pH 8, 2 mM MgCl2, 25 °C; negative effect, binding to protein only presumed"}, "SaCodY [2]": {"target": "T2, SaCodY (Staphylococcus aureus, UniProt Q2FHI3)", "T2 construct": "gene codY; full-length; expressed in E. coli BL21(DE3)pLysS; N-terminal His6-tag cut with TEV protease, Gly-Ala remnant before start Met", "T2 sequence (Q2FHI3 whole entry)": "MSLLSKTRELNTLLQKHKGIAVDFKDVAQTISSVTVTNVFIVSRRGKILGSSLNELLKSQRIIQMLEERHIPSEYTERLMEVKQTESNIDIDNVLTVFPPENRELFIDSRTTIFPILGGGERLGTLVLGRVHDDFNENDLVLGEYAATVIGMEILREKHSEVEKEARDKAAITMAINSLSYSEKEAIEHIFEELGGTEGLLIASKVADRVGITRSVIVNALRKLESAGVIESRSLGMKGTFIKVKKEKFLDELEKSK", "assay": "X-ray crystal structure of complex", "assay_type": "binding"}, "EfCodY [3]": {"target": "T1, EfCodY", "assay": "X-ray crystal structure of complex", "assay_type": "binding", "settings": "co-crystal with 30-bp DNA; 4 mM Leu; GAF domain BCAA site of protomers A and B only"}, "SaCodY [4]": {"target": "T2, SaCodY", "assay": "bio-layer interferometry, activation of binding to hutP operator DNA", "assay_type": "biochemical", "settings": "10 mM Leu with 2 mM GTP; pH 8, 2 mM MgCl2, 25 °C; allosteric activator"}, "EfCodY [5]": {"target": "T1, EfCodY", "assay": "Leu binding assay (method in supplement)", "settings": "compared with Lys74Ala mutant; details only in supplement"}},
  "data": [
    {"smiles": "Nc1nc2c(ncn2[C@@H]2O[C@H](COP(=O)(O)OP(=O)(O)OP(=O)(O)O)[C@@H](O)[C@H]2O)c(=O)[nH]1", "note": "[GTP]", "values": [
      {"measurement": "bio-layer interferometry, reduction of Leu-activated binding to hutP operator DN", "setting": "EfCodY [1]", "result": "Together with Leu, GTP reduced activation, presumably by interacting with the protein"},
      {"measurement": "X-ray crystal structure of complex", "setting": "SaCodY [2]; co-crystal with Ile and 30-bp DNA, 2 mM GTP, GAF domain near dimer interface, allosteric", "result": "The SaCodY-DNA complex was co-crystallized with Ile and GTP"}
    ]},
    {"smiles": "CC[C@H](C)[C@H](N)C(=O)O", "note": "[Ile]", "values": [
      {"measurement": "X-ray crystal structure of complex", "setting": "SaCodY [2]; co-crystal with GTP and 30-bp DNA, 20 mM Ile, GAF domain BCAA site", "result": "The SaCodY-DNA complex was co-crystallized with Ile and GTP"}
    ]},
    {"smiles": "CC(C)C[C@H](N)C(=O)O", "note": "[Leu]", "values": [
      {"measurement": "X-ray crystal structure of complex", "setting": "EfCodY [3]", "result": "EfCodY complex was co-crystallized in the presence of Leu, yet Leu bound only to protomers"},
      {"measurement": "bio-layer interferometry, activation of binding to hutP operator DNA", "setting": "SaCodY [4]", "result": "SaCodY was activated by Ile (and to a lesser extent by Leu) and GTP"},
      {"measurement": "affinity", "setting": "EfCodY [5]", "result": "the mutant binds Leu with comparable affinity to the wild type"}
    ]}
  ]
}
